Source: patent US20240246964A1 (Arbutus Biopharma Corporation, priority 2021, published 2024)

Biological target: human PD-L1 (Homo sapiens (Human), UniProt Q9NZQ7)
Test: T cell activation luciferase reporter cell culture system (T Cell Activation Assay)
Type: cell-based
Conditions: luciferase reporter assay; PD-L1 aAPC/CHO-K1 cells with PD-1 effector Jurkat T cells

Chain of human PD-L1 (Q9NZQ7 19-290): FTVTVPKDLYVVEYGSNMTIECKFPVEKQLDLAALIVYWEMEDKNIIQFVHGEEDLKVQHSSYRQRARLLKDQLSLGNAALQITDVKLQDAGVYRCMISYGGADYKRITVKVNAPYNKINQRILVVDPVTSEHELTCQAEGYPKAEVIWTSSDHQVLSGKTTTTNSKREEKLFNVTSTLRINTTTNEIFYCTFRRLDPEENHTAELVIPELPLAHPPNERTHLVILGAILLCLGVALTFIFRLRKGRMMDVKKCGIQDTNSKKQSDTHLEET

| SMILES | EC50 |
| --- | --- |
| COc1nc(-c2cccc(-c3ccnc(-c4ccc(CNC5CCOCC5)c(OC(F)F)c4)c3Cl)c2Cl)ccc1CNC1CCOCC1 [Example 618, N-((6-(2-Chloro-3-(3-chloro-2-(3-(difluoromethoxy)-4-(((tetrahydro-2H-pyran-4-yl)amino)methyl)phenyl)pyridin-4-yl)phenyl)-2-methoxypyridin-3-yl)methyl)tetrahydro-2H-pyran-4-amine] | 57.7 nM |
| COc1nc(-c2cccc(-c3ccnc(-c4ccc(CNC5CCN(CCO)CC5)c(OC(F)F)c4)c3Cl)c2Cl)ccc1CNC1CCN(CCO)CC1 [Example 620, 2-(4-(((6-(2-Chloro-3-(3-chloro-2-(3-(difluoromethoxy)-4-(((1-(2-hydroxyethyl)piperidin-4-yl)amino)methyl)phenyl)pyridin-4-yl)phenyl)-2-methoxypyridin-3-yl)methyl)amino)piperidin-1-yl)ethan-1-ol] | 44.9 nM |
| COc1cc(-c2ccnc(-c3cccc(-c4ccc(CN5CC6(CNC(=O)C6)C5)c(OC)n4)c3Cl)c2Cl)ccc1CN1CC2(CNC(=O)C2)C1 [Example 622, 2-(4-(3-Chloro-2-(2-chloro-3-(6-methoxy-5-((7-oxo-2,6-diazaspiro[3.4]octan-2-yl)methyl)pyridin-2-yl)phenyl)pyridin-4-yl)-2-methoxybenzyl)-2,6-diazaspiro[3.4]octan-7-one] | 216 nM |
| COc1cc(-c2ccnc(-c3cccc(-c4ccc(CNC5CCOCC5)c(OC)n4)c3Cl)c2Cl)ccc1CNC1CCOCC1 [Example 623, N-(4-(3-Chloro-2-(2-chloro-3-(6-methoxy-5-(((tetrahydro-2H-pyran-4-yl)amino)methyl)pyridin-2-yl)phenyl)pyridin-4-yl)-2-methoxybenzyl)tetrahydro-2H-pyran-4-amine] | 222 nM |
| COc1cc(-c2ccnc(-c3cccc(-c4ccc(CNC[C@@H]5CCC(=O)N5)c(OC)n4)c3Cl)c2Cl)ccc1CNC[C@@H]1CCC(=O)N1 [Example 624, (S)-5-(((4-(3-Chloro-2-(2-chloro-3-(6-methoxy-5-(((((S)-5-oxopyrrolidin-2-yl)methyl)-amino)methyl)pyridin-2-yl)phenyl)pyridin-4-yl)-2-methoxybenzyl)-amino)methyl)pyrrolidin-2-one] | 16.7 nM |
| COCCC(=O)N1CCC(NCc2ccc(-c3cccc(-c4ccnc(-c5ccc(CN6CC7(CNC(=O)C7)C6)c(OC)c5)c4Cl)c3Cl)nc2OC)CC1 [Example 625, 2-(4-(3-Chloro-4-(2-chloro-3-(6-methoxy-5-(((1-(3-methoxypropanoyl)piperidin-4-yl)amino)methyl)pyridin-2-yl)phenyl)pyridin-2-yl)-2-methoxybenzyl)-2,6-diazaspiro[3.4]octan-7-one] | 20.8 nM |
| COc1cc(-c2ncnc(-c3cccc(-c4ccc(CNC5CCOCC5)c(OC)n4)c3Cl)c2Cl)ccc1CNC1CCOCC1 [Example 626, N-((6-(2-Chloro-3-(5-chloro-6-(3-methoxy-4-(((tetrahydro-2H-pyran-4-yl)amino)methyl)phenyl)pyrimidin-4-yl)phenyl)-2-methoxypyridin-3-yl)methyl)tetrahydro-2H-pyran-4-amine] | 79 nM |
| COCCC(=O)N1CCC(NCc2ccc(-c3cccc(-c4ccnc(-c5ccc(CN6CC7(C6)CN(C(C)=O)C7)c(OC)c5)c4Cl)c3Cl)nc2OC)CC1 [Example 631, 1-(4-(((6-(3-(2-(4-((6-Acetyl-2,6-diazaspiro[3.3]heptan-2-yl)methyl)-3-methoxyphenyl)-3-chloropyridin-4-yl)-2-chlorophenyl)-2-methoxypyridin-3-yl)methyl)amino)piperidin-1-yl)-3-methoxypropan-1-one] | 37.7 nM |
| COCCC(=O)N1CCC(NCc2ccc(-c3cccc(-c4ccnc(-c5ccc(CNC[C@H](C)O)c(OC)c5)c4Cl)c3Cl)nc2OC)CC1 [Example 632, (S)-1-(4-(((6-(2-Chloro-3-(3-chloro-2-(4-(((2-hydroxypropyl)amino)methyl)-3-methoxyphenyl)pyridin-4-yl)phenyl)-2-methoxypyridin-3-yl)methyl)amino)piperidin-1-yl)-3-methoxypropan-1-one] | 41.2 nM |
| COc1nc(-c2ccnc(-c3cccc4c3CC[C@@H]4Nc3nc(OC)c(CNC4CCN(C(C)=O)CC4)cc3C(F)(F)F)c2Cl)ccc1CNC[C@@H]1CCC(=O)N1 [Example 633, (S)-5-((((2′-((S)-1-((5-(((1-Acetylpiperidin-4-yl)amino)methyl)-6-methoxy-3-(trifluoromethyl)pyridin-2-yl)amino)-2,3-dihydro-1H-inden-4-yl)-3′-chloro-6-methoxy-[2,4′-bipyridin]-5-yl)methyl)amino)methyl)pyrrolidin-2-one] | 121 nM |
| COc1nc(-c2ccnc(-c3cccc4c3CC[C@@H]4Nc3nc(OC)c(CNC4CCOCC4)cc3C(F)(F)F)c2Cl)ccc1CNC[C@@H]1CCC(=O)N1 [Example 634, (S)-5-((((3′-Chloro-6-methoxy-2′-((S)-1-((6-methoxy-5-(((tetrahydro-2H-pyran-4-yl)amino)methyl)-3-(trifluoromethyl)pyridin-2-yl)amino)-2,3-dihydro-1H-inden-4-yl)-[2,4′-bipyridin]-5-yl)methyl)amino)methyl)pyrrolidin-2-one] | 110 nM |
| COc1cc(-c2nccc(-c3cccc(-c4ccc(CN5CC6(C5)CN(C(C)=O)C6)c(OC)n4)c3C#N)c2Cl)ccc1CN1CC2(C1)CN(C(C)=O)C2 [Example 636, 2-(2-(4-((6-Acetyl-2,6-diazaspiro[3.3]heptan-2-yl)methyl)-3-methoxyphenyl)-3-chloropyridin-4-yl)-6-(5-((6-acetyl-2,6-diazaspiro[3.3]heptan-2-yl)methyl)-6-methoxypyridin-2-yl)benzonitrile] | 1270 nM |
| COc1cc(-c2nccc(-c3cccc(NC(=O)c4ccc(CNC[C@@H]5CCC(=O)N5)cn4)c3C)c2Cl)ccc1CNC[C@@H]1CCC(=O)N1 [Example 647, N-(3-(3-Chloro-2-(3-methoxy-4-(((((S)-5-oxopyrrolidin-2-yl)methyl)amino)methyl)phenyl)pyridin-4-yl)-2-methylphenyl)-5-(((((S)-5-oxopyrrolidin-2-yl)methyl)amino)methyl)picolinamide] | 65.3 nM |
| COc1cc(-c2nccc(-c3cccc(NC(=O)c4ccc(CN5CC6(C5)CN(C(C)=O)C6)cn4)c3C)c2Cl)ccc1CN1CC2(C1)CN(C(C)=O)C2 [Example 649, 5-((6-Acetyl-2,6-diazaspiro[3.3]heptan-2-yl)methyl)-N-(3-(2-(4-((6-acetyl-2,6-diazaspiro[3.3]heptan-2-yl)methyl)-3-methoxyphenyl)-3-chloropyridin-4-yl)-2-methylphenyl)picolinamide] | ≥ 10000 nM |
| COc1cc(-c2nccc(-c3cccc(-c4ccc(CN5CC6(CNC(=O)C6)C5)c(OC)n4)c3C#N)c2Cl)ccc1CN1CC2(CNC(=O)C2)C1 [Example 653, 2-(3-Chloro-2-(3-methoxy-4-((7-oxo-2,6-diazaspiro[3.4]octan-2-yl)methyl)phenyl)pyridin-4-yl)-6-(6-methoxy-5-((7-oxo-2,6-diazaspiro[3.4]octan-2-yl)methyl)pyridin-2-yl)benzonitrile] | 208 nM |
| COc1nc(-c2cccc(-c3ccnc(-c4cc(OC)c5nc(CNCCO)nn5c4)c3Cl)c2Cl)ccc1CNC1CCN(C(C)=O)CC1 [Example 654, 1-(4-(((6-(2-Chloro-3-(3-chloro-2-(2-(((2-hydroxyethyl)amino)methyl)-8-methoxy-[1,2,4]triazolo[1,5-a]pyridin-6-yl)pyridin-4-yl)phenyl)-2-methoxypyridin-3-yl)methyl)amino)piperidin-1-yl)ethan-1-one] | 82.8 nM |
| COc1nc(-c2cccc(-c3ccnc(-c4cc(OC)c5nc(CN6CC7(CNC(=O)C7)C6)nn5c4)c3Cl)c2Cl)ccc1CNC1CCN(C(C)=O)CC1 [Example 659, 2-((6-(4-(3-(5-(((1-Acetylpiperidin-4-yl)amino)methyl)-6-methoxypyridin-2-yl)-2-chlorophenyl)-3-chloropyridin-2-yl)-8-methoxy-[1,2,4]triazolo[1,5-a]pyridin-2-yl)methyl)-2,6-diazaspiro[3.4]octan-7-one] | 82.2 nM |
| COc1nc(-c2cccc(-c3ccnc(-c4cc5c(OC)nc(CNCCO)nn5c4)c3Cl)c2Cl)ccc1CNC1CCN(C(C)=O)CC1 [Example 661, 1-(4-(((6-(2-Chloro-3-(3-chloro-2-(2-(((2-hydroxyethyl)amino)methyl)-4-methoxypyrrolo[2,1-f][1,2,4]triazin-6-yl)pyridin-4-yl)phenyl)-2-methoxypyridin-3-yl)methyl)amino)piperidin-1-yl)ethan-1-one] | 820 nM |
| COc1nc(-c2cccc(-c3ccnc(-c4ccc(CN5CC6(C5)CN(C(C)=O)C6)c(OC(F)F)c4)c3Cl)c2Cl)ccc1CNC1CCOCC1 [Example 663, 1-(6-(4-(3-Chloro-4-(2-chloro-3-(6-methoxy-5-(((tetrahydro-2H-pyran-4-yl)amino)methyl)pyridin-2-yl)phenyl)pyridin-2-yl)-2-(difluoromethoxy)benzyl)-2,6-diazaspiro[3.3]heptan-2-yl)ethan-1-one] | 39.9 nM |
| COc1nc(-c2cccc(-c3ccnc(-c4ccc(CN5CC6(C5)CN(C(C)=O)C6)c(OC(F)F)c4)c3Cl)c2Cl)ccc1CNC1CCN(C(C)=O)CC1 [Example 664, 1-(4-(((6-(3-(2-(4-((6-Acetyl-2,6-diazaspiro[3.3]heptan-2-yl)methyl)-3-(difluoromethoxy)phenyl)-3-chloropyridin-4-yl)-2-chlorophenyl)-2-methoxypyridin-3-yl)methyl)amino)piperidin-1-yl)ethan-1-one] | 32.4 nM |
| COc1nc(-c2ccnc(-c3cccc4c3CC[C@@H]4Nc3nc(OC)c(CNC[C@@H]4CCC(=O)N4)cc3C(F)(F)F)c2Cl)ccc1CNC1CCOCC1 [Example 666, (S)-5-((((6-(((S)-4-(3′-Chloro-6-methoxy-5-(((tetrahydro-2H-pyran-4-yl)amino)methyl)-[2,4′-bipyridin]-2′-yl)-2,3-dihydro-1H-inden-1-yl)amino)-2-methoxy-5-(trifluoromethyl)pyridin-3-yl)methyl)amino)methyl)pyrrolidin-2-one] | 114 nM |
